Values quoted from earlier work in US12090135B2, “Neutral pH compositions of docetaxel and human serum albumin” (Zhuhai Beihai Biotech Co., Ltd., priority 2016, dated 2024).
“Also recorded” adds a separate entry of the source.

Key:
[1] = tested on: microtubule depolymerization

CC(=O)O[C@@]12CO[C@@H]1C[C@H](O)[C@@]1(C)C(=O)[C@H](O)C3=C(C)[C@@H](OC(=O)[C@H](O)[C@@H](NC(=O)OC(C)(C)C)c4ccccc4)C[C@@](O)([C@@H](OC(=O)c4ccccc4)[C@H]21)C3(C)C [Docetaxel]
in vitro binding to plasma proteins (plasma proteins; in three cancer patients): approximately 97% | protein bound (plasma proteins; in vitro studies, mainly to al-acid glycoprotein, albumin, and lipoproteins): about 94% | Potency in inhibiting microtubule depolymerization relative to paclitaxel [1]: about twice as potent as paclitaxel | Water solubility: practically insoluble in water; also recorded: very poor water solubility
